Laboratory results published in patent publication US20130252814A1, “SYNERGISTIC HERBICIDAL COMPOSITION CONTAINING PENOXSULAM AND PRETILACHLOR” (DOW AGROSCIENCES LLC, priority 2011, published 2013).

Tested on: ECHCG - Echinochloa crus-galli (barnyardgrass)
Assay: Preemergence herbicidal activity of mixtures under field conditions, seeded rice, field trial Taiwan
Format: in vivo
Description: A field trial was conducted in rice in Taiwan using standard herbicide small plot research methodology. Plot size was 1 meter (m) wide by 1 m long. There were 3 replicates per treatment. Soil type was medium texture. Rice was sown by hand direct dry seeding as per normal local cultural practices. The rice crop was grown using normal cultural practices for fertilization, watering, flooding and maintenance to ensure good growth of the crop and the weeds. Treatments were applied by backpack sprayer using compressed air at 30 pounds per square inch (psi) spray pressure. Spray tips were Flat Fan Teejet nozzles, delivering a spray volume of 300 liters per hectare (L/ha). For each treatment, the appropriate formulated product amount to treat the plot area, to achieve the desired application rate, based on unit area of application (hectare), was calculated, measured, and mixed in water prior to applying with the backpack sprayer. Treatments were rated as compared to the untreated control plots. The treated plots and control plots were rated blind at various intervals after application. Ratings were based of Percent (%) Visual weed control, where 0 corresponds to no injury and 100 corresponds to complete kill. Colby's equation was used to determine the herbicidal effects expected from the mixtures (Colby, S. R. Calculation of the synergistic and antagonistic response of herbicide combinations. Weeds 1967, 15, 20-22). The following equation was used to calculate the expected activity of mixtures containing two active ingredients, A and B: Expected=A+B−(A×B/100) A=observed efficacy of active ingredient A at the same concentration as used in the mixture and B=observed efficacy of active ingredient B at the same concentration as used in the mixture.

Row | SMILES | % Control ECHCG Obs (7 days after preemergence application, penoxsulam 7.5 gr ai/ha) [%] | % Control ECHCG Obs (7 days after preemergence application, penoxsulam 23 gr ai/ha) [%] | % Control ECHCG Obs (28 days after preemergence application, penoxsulam 7.5 gr ai/ha) [%] | % Control ECHCG Obs (28 days after preemergence application, penoxsulam 15 gr ai/ha) [%] | % Control ECHCG Obs (7 days after preemergence application, pretilachlor 270 gr ai/ha) [%] | % Control ECHCG Obs (7 days after preemergence application, pretilachlor 540 gr ai/ha) [%] | % Control ECHCG Obs (28 days after preemergence application, pretilachlor 270 gr ai/ha) [%] | % Control ECHCG Obs (28 days after preemergence application, pretilachlor 540 gr ai/ha) [%]
1 | COc1cnc(OC)n2nc(NS(=O)(=O)c3c(OCC(F)F)cccc3C(F)(F)F)nc12 [Penoxsulam, 2-(2,2-difluoroethoxy)-N-(5,8-dimethoxy-[1,2,4]triazolo[1,5-c]pyrimidin-2-yl)-6-(trifluoromethyl)benzenesulfonamide] | 47 | 95 | 7 | 80 |  |  |  | 
2 | CCCOCCN(C(=O)CCl)c1c(CC)cccc1CC [Pretilachlor, 2-chloro-N-(2,6-diethylphenyl)-N-(2-propoxyethyl)acetamide] |  |  |  |  | 3 | 3 | 0 | 0
